Drawing on PubChem BioAssay (NCI), this text covers GI50 and TGI for eight molecules.

Each structure is given as a SMILES string. Where “and” joins values, the source holds several entries; their conditions need not be identical. Equal entries are not always repeated.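 How tested: cells in 96-well plates exposed to compound for 48 hours at five concentrations. The concentration for 50% growth inhibition is given as GI50. TGI: total growth inhibition.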

Assay in all cases: NCI tumour cell line growth inhibition, 48 h
The test system of test [1] is T-47D breast.
Test [2] relates to SK-MEL-2 melanoma.
Test [3] deals with A498 renal.
In test [4] the test system is HCC-2998 colon.
In test [5] the test system is RXF 393 renal.
Test [6] deals with KM12 colon.
The test system of test [7] is HOP-62 NSCLC.
Test [8] relates to MDA-MB-231 breast.
The test system of test [9] is SN12C renal.
The test system of test [10] is TK-10 renal.

With `COC(=O)[C@H](Cc1cn(C)cn1)NC(=O)[C@@H](NC(=O)Nc1cc(C(F)(F)F)cc(C(F)(F)F)c1)C(C)(C)C`, the GI50 in test [1], in test [2], in test [3], in [4], in test [5] and in [6] was > 10 µM each time. The GI50 in test [7], in [8], in [9] and in test [10] was > 10 µM throughout. Further, the TGI in test [1], in [2], in test [3], in test [4], in test [5] and in test [6] was > 10 µM each time. The TGI in test [7], in test [8], in test [9] and in [10] was > 10 µM each time.
For the molecule `CCCC(=O)Nc1c(I)cc(I)c(CC(CC)C(=O)O)c1I` (centres undefined), the GI50 in test [1], in [2], in test [3], in test [4], in test [5] and in test [6] was > 100 µM in each case. Further, the GI50 in test [7], in test [8], in test [9] and in [10] was > 100 µM throughout. The TGI in [1], in test [2], in test [3], in test [4], in test [5] and in test [6] was > 100 µM in each case. The TGI in [7], in test [8], in test [9] and in test [10] was > 100 µM in each case.
On to `CCCCCCC/C=C1\CCC(CN(C)C)C1=O` (centres undefined), for which the TGI in test [1] worked out at 26.7 µM; in test [2], 29.8 µM; in [3], 35.6 µM; in test [4], 32.1 µM; in test [5], 12.1 µM; in [6], 13.9 µM. Besides, the TGI in test [7] came to 32.3 µM; in test [8], 8.72 µM; in test [9], 17.5 µM; in [10], 16.5 µM.
Take `CCCCCCCCCCCCC(NC(C)=O)(C(=O)OCC)C(=O)OCC`: the GI50 in [1] is 5.43 µM; in [3], 13.5 µM; in test [4], 12.5 µM; in test [5], 13.7 µM; in [6], 11.1 µM; in test [7], 13.9 µM. The GI50 is 12.6 µM in test [8] and 10.2 µM in test [9]. The TGI in [1] worked out at 20.7 µM; in test [3], 26.6 µM; in test [4], 26.2 µM; in test [5], 27 µM; in test [6], 28.9 µM; in [7], 27.5 µM. The values for the TGI in test [8] and in test [9] were 26.7 µM and 22 µM, respectively.
As to `Cc1ccccc1C[P+](c1ccccc1)(c1ccccc1)c1ccccc1`, the GI50 in [1] is 0.294 µM; in test [2] it was 1.29 µM; in test [3], 1.93 µM; in test [4], 0.888 µM; in test [5] it was 4.5 µM; in test [6], 0.804 µM. The GI50 in [7] was 1.79 µM; in test [8] it was 2.04 µM; in test [9], 2.42 µM; in test [10], 1.2 µM. Also, the TGI stood at 14.9 µM in [1]; 68.4 µM in test [2]; 12.7 µM in test [3]; 24.2 µM in test [4]; 37.1 µM in test [5]; 11 µM in [6]. Besides, the TGI in test [7] was 58.9 µM; in [8], > 100 µM; in test [9], > 100 µM; in test [10], 30.2 µM.
With `N#Cc1ccc(NC(=O)Nc2nc3ccc(OC(F)(F)F)cc3s2)cc1`, the GI50 in test [1] is 0.428 µM; in [2], 1.78 µM; in test [3], 0.473 µM; in test [4] it was 1.28 µM; in test [5] it was 1.87 µM; in test [6], 1.02 µM. The GI50 in [7] is 2.52 µM; in [8], 0.935 µM; in test [9] it was 1.58 µM; in test [10], 1.22 µM. The TGI in [1] was 5.8 µM; in test [2], 4.25 µM; in [3] it was 4.41 µM; in [4], 6.04 µM; in test [5] it was 7.39 µM; in test [6], 6.89 µM. Moreover, the TGI in test [7] amounted to 8.12 µM; in test [8], 3.65 µM; in test [9] it was 8.64 µM; in test [10], 7.03 µM.
With `COc1ccc(-c2cc(-c3ccc(Cl)cc3)nc(SCCCCCCC(=O)NO)n2)cc1`, the GI50 in test [1] is 1.42 µM; in [2], 5.73 µM; in test [3], 1.28 µM; in [4] it was 2.01 µM; in test [5] it was 1.27 µM; in test [6], 2.2 µM. Moreover, the GI50 in test [7] was 1.66 µM; in test [8] it was 1.74 µM; in test [9] it was 1.74 µM; in test [10] it was 2.12 µM. Also, the TGI is > 50 µM in [1]; > 50 µM in test [2]; 3.8 µM in test [3]; 8.37 µM in test [4]; 3.69 µM in [5]; 13.1 µM in [6]. For the same molecule, the TGI in test [7] is 15 µM; in test [8], 8.89 µM; in [9], 8.85 µM; in test [10], > 50 µM.
Turning to `CCCCCCC(O)C(O)CCC(O)C1CCC(CCCCC(O)CC2=CC(C)OC2=O)O1` (centres undefined), the GI50 in test [1] is 4.99 µM; in [2] it was 17.4 µM; in [5], 22.9 µM; in test [6], 24.5 µM; in [7], 12.4 µM; in [8], 18.5 µM. The GI50 in test [9] is 16.2 µM; in [10], 22.3 µM. The TGI in test [1] is 40.7 µM; in test [2], 36 µM; in test [3], 47.6 µM; in test [4] it was 34.5 µM; in test [5], 39.7 µM; in test [6] it was 77.7 µM. The TGI in [7] was 26 µM; in test [8] it was 6.4 µM and 46.9 µM; in [9], 34 µM; in test [10], > 100 µM.
